Assay results: PubChem BioAssay AID248 (DTP/NCI, 2004)
Several values for one entry are separate records, joined by “and”; a condition that tells them apart may be missing. Identical values can stand only once. Toxic doses and inconclusive results are not listed. Cut-off read from the data, not from the text of the source: active = T/C of 150% or more; inactive = T/C below 125%.

System: L1210 leukemia ip in BDF1 mice, survival T/C
Assay: NCI In Vivo Anticancer Drug Screen. Data for tumor model L1210 Leukemia (intraperitoneal) in B6D2F1 (BDF1) mice
Conditions: endpoint: mean survival time, higher = longer survival
How it was run: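 Survival endpoint. Drug-treated group vs vehicle group, expressed as T divided by C. Tumor passaged by transplantation.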

[1] = dose: 100.0 mg/kg/injection, schedule: Q04DX003 (ip), vehicle: Klucel (hydroxypropylcellulose) (HPC)
[2] = dose: 200.0 mg/kg/injection, schedule: Q04DX003 (ip), vehicle: Klucel (hydroxypropylcellulose) (HPC)
[3] = dose: 400.0 mg/kg/injection, schedule: Q04DX003 (ip), vehicle: Klucel (hydroxypropylcellulose) (HPC)
[4] = dose: 100.0 mg/kg/injection, schedule: Q01DX009 (ip), vehicle: saline
[5] = dose: 200.0 mg/kg/injection, schedule: Q01DX009 (ip), vehicle: saline
[6] = dose: 400.0 mg/kg/injection, schedule: Q01DX009 (ip), vehicle: saline
[7] = dose: 100.0 mg/kg/injection, schedule: Q01DX009 (ip), vehicle: Klucel (hydroxypropylcellulose) (HPC)
[8] = dose: 200.0 mg/kg/injection, schedule: Q01DX009 (ip), vehicle: Klucel (hydroxypropylcellulose) (HPC)
[9] = dose: 400.0 mg/kg/injection, schedule: Q01DX009 (ip), vehicle: Klucel (hydroxypropylcellulose) (HPC)
[10] = dose: 100.0 mg/kg/injection, schedule: Q04DX002 (ip), vehicle: Klucel (hydroxypropylcellulose) (HPC)
[11] = dose: 200.0 mg/kg/injection, schedule: Q04DX002 (ip), vehicle: Klucel (hydroxypropylcellulose) (HPC)
[12] = dose: 100.0 mg/kg/injection, schedule: Q04DX003 (ip), vehicle: saline
[13] = dose: 200.0 mg/kg/injection, schedule: Q04DX003 (ip), vehicle: saline
[14] = dose: 400.0 mg/kg/injection, schedule: Q04DX003 (ip), vehicle: saline
[15] = dose: 400.0 mg/kg/injection, schedule: Q04DX002 (ip), vehicle: Klucel (hydroxypropylcellulose) (HPC)
[16] = dose: 100.0 mg/kg/injection, schedule: Q01DX001 (ip), vehicle: saline
[17] = dose: 200.0 mg/kg/injection, schedule: Q01DX001 (ip), vehicle: saline
[18] = dose: 400.0 mg/kg/injection, schedule: Q01DX001 (ip), vehicle: saline

Measured: T/C

Fc1c(F)c(F)c(Oc2nc(-c3ccccc3)nc(-c3ccccc3)n2)c(F)c1F
inactive: dose: 25.6 mg/kg/injection, schedule: Q04DX002 (ip), vehicle: saline with Tween-80 92 % of control | dose: 64.0 mg/kg/injection, schedule: Q04DX002 (ip), vehicle: saline with Tween-80 106 % of control | dose: 160.0 mg/kg/injection, schedule: Q04DX002 (ip), vehicle: saline with Tween-80 100 % of control | dose: 400.0 mg/kg/injection, schedule: Q04DX002 (ip), vehicle: saline with Tween-80 95 % of control

CSC(=Nc1ccccc1)N(C)c1ccccc1
inactive: [1] 90 % of control | [2] 86 % of control | [3] 88 % of control

COc1cc(C(=O)N/N=C/N(C)C)cc(OC)c1OC
inactive: dose: 75.0 mg/kg/injection, schedule: Q01DX009 (ip), vehicle: Klucel (hydroxypropylcellulose) (HPC) 109 % of control | [1] 99 % of control | dose: 150.0 mg/kg/injection, schedule: Q01DX009 (ip), vehicle: Klucel (hydroxypropylcellulose) (HPC) 102 % of control | [2] 99 % of control | dose: 300.0 mg/kg/injection, schedule: Q01DX009 (ip), vehicle: Klucel (hydroxypropylcellulose) (HPC) 89 % of control | [3] 100 % of control

CC(=O)OCC1OC(Sc2ccc([N+](=O)[O-])cc2[N+](=O)[O-])C(OC(C)=O)C(OC(C)=O)C1OC(C)=O (stereo not given)
inactive: dose: 100.0 mg/kg/injection, schedule: Q01DX001 (ip), vehicle: saline with Tween-80 96 % of control | dose: 200.0 mg/kg/injection, schedule: Q01DX001 (ip), vehicle: saline with Tween-80 101 % of control | dose: 400.0 mg/kg/injection, schedule: Q01DX001 (ip), vehicle: saline with Tween-80 93 % of control

Cc1ccc(S(=O)(=O)OC2CCC(=O)CC2)cc1
inactive: dose: 75.0 mg/kg/injection, schedule: Q01DX001 (ip), vehicle: acetone 92 % of control | dose: 150.0 mg/kg/injection, schedule: Q01DX001 (ip), vehicle: acetone 97 % of control | dose: 300.0 mg/kg/injection, schedule: Q01DX001 (ip), vehicle: acetone 100 % of control

Cc1ccc(S(=O)(=O)N2CCc3ccccc3C(=O)C2Br)cc1 (stereo not given)
inactive: [4] 97 % of control | [5] 94 % of control | [6] 86 % of control

CCCCCCCCCC/C=C/c1c(C)[nH]c2ccccc2c1=O
inactive: dose: 100.0 mg/kg/injection, schedule: Q01DX009 (ip), vehicle: alcohol 98 % of control | dose: 100.0 mg/kg/injection, schedule: Q04DX003 (ip), vehicle: alcohol 93 % of control | dose: 200.0 mg/kg/injection, schedule: Q04DX003 (ip), vehicle: alcohol 100 % of control | dose: 400.0 mg/kg/injection, schedule: Q04DX003 (ip), vehicle: alcohol 88 % of control

CCOC(=O)CC(=O)C1CCC2C3CC=C4CC(OC(=O)OCC)CCC4(C)C3CCC12C (stereo not given)
inactive: dose: 25.0 mg/kg/injection, schedule: Q01DX001 (sc), vehicle: olive oil, sesame oil, peanut oil 104 % of control | dose: 50.0 mg/kg/injection, schedule: Q01DX001 (sc), vehicle: olive oil, sesame oil, peanut oil 107 % of control | dose: 100.0 mg/kg/injection, schedule: Q01DX001 (sc), vehicle: olive oil, sesame oil, peanut oil 93 % of control

ClC1(Cl)C2CCC3C(CCC21)C3(Cl)Cl (stereo not given)
inactive: [7] 100 % of control | [8] 107 % of control | [9] 107 % of control

CC(C)Nc1ccc(O)cc1
inactive: [10] 106 % of control | [11] 95 % of control

O=C(O)c1ccc(SSc2ccc(C(=O)O)cn2)nc1
inactive: [12] 102 % of control | [13] 101 % of control | [14] 104 % of control

O=C(Nc1ccccc1)Oc1ccc(Cl)cc1Cc1ccccc1
inactive: [10] 87 % of control | [15] 101 % of control

C=C(C)C1CC=C(/C=N/O)CC1 (stereo not given)
inactive: [16] 104 % of control | dose: 100.0 mg/kg/injection, schedule: Q01DX009 (ip), vehicle: saline sonified 104 % of control | [1] 96 % of control | [17] 101 % of control | dose: 200.0 mg/kg/injection, schedule: Q01DX009 (ip), vehicle: saline sonified 97 % of control | [2] 98 % of control | [18] 95 % of control | dose: 400.0 mg/kg/injection, schedule: Q01DX009 (ip), vehicle: saline sonified 97 % of control | [3] 98 % of control

O=C(O)C1C2C=CC(CO)(O2)C1C(=O)O (stereo not given)
inactive: [4] 97 % of control | [12] 97 % of control | [5] 100 % of control | [13] 92 % of control | [6] 96 % of control | [14] 95 % of control

CC(Cl)CN(CC(C)Cl)C(=O)OCC(NC(=O)OCc1ccccc1)C(=O)OCc1ccccc1 (stereo not given)
inactive: [7] 88 % of control | [1] 87 % of control | [2] 96 % of control | [9] 91 % of control | [3] 91 % of control

O=C(NCCCCN1CC1)C(=O)Nc1ccccc1
inactive: dose: 12.5 mg/kg/injection, schedule: Q04DX003 (ip), vehicle: Klucel (hydroxypropylcellulose) (HPC) 97 % of control | dose: 25.0 mg/kg/injection, schedule: Q04DX003 (ip), vehicle: Klucel (hydroxypropylcellulose) (HPC) 93 % of control | dose: 50.0 mg/kg/injection, schedule: Q04DX003 (ip), vehicle: Klucel (hydroxypropylcellulose) (HPC) 98 % of control | [1] 103 % of control

CC(=O)NC(CC(C)C)C(=O)O (stereo not given)
inactive: dose: 25.0 mg/kg/injection, schedule: Q04DX002 (ip), vehicle: saline 96 % of control | dose: 50.0 mg/kg/injection, schedule: Q04DX002 (ip), vehicle: saline 101 % of control | dose: 100.0 mg/kg/injection, schedule: Q04DX002 (ip), vehicle: saline 101 % of control | dose: 200.0 mg/kg/injection, schedule: Q04DX002 (ip), vehicle: saline 90 % of control | dose: 400.0 mg/kg/injection, schedule: Q04DX002 (ip), vehicle: saline 108 % of control

Cc1ccc(S(C)=O)cc1 (stereo not given)
inactive: [16] 102 % of control | [17] 95 % of control | [18] 95 % of control

Cc1c(Cl)cccc1NC(=O)N1CCN(C)CC1
inactive: [7] 98 % of control and 107 % of control | [10] 106 % of control and 91 % of control | [8] 109 % of control and 92 % of control | [11] 101 % of control and 91 % of control | [15] 110 % of control and 90 % of control

CCCCCCCCCCCCCCCOc1ccc(C=Nc2ccc(C)cc2)cc1
inactive: [1] 93 % of control | [2] 102 % of control | [3] 102 % of control

Cc1cccc(NC(=O)NCCO)c1
inactive: dose: 100.0 mg/kg/injection, schedule: Q01DX001 (ip), vehicle: carboxymethylcellulose (CMC) 103 % of control | dose: 200.0 mg/kg/injection, schedule: Q01DX001 (ip), vehicle: carboxymethylcellulose (CMC) 109 % of control | dose: 400.0 mg/kg/injection, schedule: Q01DX001 (ip), vehicle: carboxymethylcellulose (CMC) 97 % of control

O=C(CN1CC1)NCCCCCCCCNC(=O)CN1CC1
active: dose: 33.0 mg/kg/injection, schedule: Q01DX009 (ip), vehicle: carboxymethylcellulose (CMC) 183 % of control | dose: 40.0 mg/kg/injection, schedule: Q04DX003 (ip), vehicle: Klucel (hydroxypropylcellulose) (HPC) 154 % of control | dose: 50.0 mg/kg/injection, schedule: Q01DX001 (ip), vehicle: carboxymethylcellulose (CMC) 152 % of control | dose: 60.0 mg/kg/injection, schedule: Q04DX003 (ip), vehicle: Klucel (hydroxypropylcellulose) (HPC) 173 % of control
inactive: dose: 4.4 mg/kg/injection, schedule: Q01DX001 (ip), vehicle: carboxymethylcellulose (CMC) 108 % of control | dose: 6.6 mg/kg/injection, schedule: Q01DX001 (ip), vehicle: carboxymethylcellulose (CMC) 115 % of control | dose: 7.0 mg/kg/injection, schedule: Q01DX009 (ip), vehicle: carboxymethylcellulose (CMC) 97 % of control | dose: 10.0 mg/kg/injection, schedule: Q01DX001 (ip), vehicle: carboxymethylcellulose (CMC) 117 % of control | dose: 11.0 mg/kg/injection, schedule: Q01DX009 (ip), vehicle: carboxymethylcellulose (CMC) 112 % of control | dose: 15.0 mg/kg/injection, schedule: Q01DX001 (ip), vehicle: carboxymethylcellulose (CMC) 117 % of control | dose: 25.0 mg/kg/injection, schedule: Q01DX009 (ip), vehicle: carboxymethylcellulose (CMC) 118 % of control | dose: 50.0 mg/kg/injection, schedule: Q01DX009 (ip), vehicle: carboxymethylcellulose (CMC) 104 % of control | dose: 90.0 mg/kg/injection, schedule: Q04DX003 (ip), vehicle: Klucel (hydroxypropylcellulose) (HPC) 97 % of control
